From the supplement of paper PMC13207355

Experiments:
Details in all cases: exposure time: 72 h
E57 [1] = patient-derived glioblastoma stem cells of mesenchymal subtype; assay: surviving fraction (nuclei count normalised to DMSO); higher = more cells surviving (less toxic)
E21 [2] = patient-derived glioblastoma stem cells of mesenchymal subtype; assay: as above
FT3469 [3] = normal neural stem cell line; assay: as above
E13 [4] = patient-derived glioblastoma stem cells of classical subtype; assay: as above
E34 [5] = patient-derived glioblastoma stem cells of proneural subtype; assay: as above
E28 [6] = patient-derived glioblastoma stem cells of classical subtype; assay: as above
E31 [7] = patient-derived glioblastoma stem cells of proneural subtype; assay: as above
E57 [8] = assay: phenotypic distance (Euclidean, principal components) from DMSO controls (arbitrary units); higher = stronger morphological change
E21 [9] = assay: as above
FT3469 [10] = assay: as above
E13 [11] = assay: as above
E34 [12] = assay: as above
E28 [13] = assay: as above
E31 [14] = assay: as above
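Throughout, for phenotypic distance (Euclidean, principal components) from DMSO controls: cell Painting imaging in 384-well plates, CellProfiler features reduced to at least 20 principal components, Euclidean distance versus same-plate DMSO vehicle wells (0.1% v/v), median over six images per well.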
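Throughout, for surviving fraction (nuclei count normalised to DMSO): nuclei counted by high-content imaging of Hoechst-stained cells in laminin-coated 384-well plates, relative to 0.1% DMSO vehicle wells, with staurosporine as cell-death control.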

COc1ccc(C(=O)CC(=O)c2ccc(C(C)(C)C)cc2)cc1 [Avobenzone]
Details | phenotypic distance | surviving fraction
E13 [4], 4.1 nM | – | 0.902
E13 [4], 12.3 nM | – | 1.02
E13 [4], 37 nM | – | 1.08
E13 [4], 111.1 nM | – | 0.948
E13 [4], 333.3 nM | – | 1.11
E13 [4], 1000 nM | – | 1.07
E13 [4], 3000 nM | – | 0.8
E13 [11], 4.1 nM | 1.11 | –
E13 [11], 12.3 nM | 0.579 | –
E13 [11], 37 nM | 0.386 | –
E13 [11], 111.1 nM | 0.499 | –
E13 [11], 333.3 nM | 0.627 | –
E13 [11], 1000 nM | 0.606 | –
E13 [11], 3000 nM | 0.743 | –
E21 [2], 4.1 nM | – | 1.1
E21 [2], 12.3 nM | – | 1.17
E21 [2], 37 nM | – | 1.05
E21 [2], 111.1 nM | – | 1.13
E21 [2], 333.3 nM | – | 1.13
E21 [2], 1000 nM | – | 1.07
E21 [2], 3000 nM | – | 0.82
E21 [9], 4.1 nM | 0.845 | –
E21 [9], 12.3 nM | 0.782 | –
E21 [9], 37 nM | 0.67 | –
E21 [9], 111.1 nM | 0.818 | –
E21 [9], 333.3 nM | 0.929 | –
E21 [9], 1000 nM | 0.701 | –
E21 [9], 3000 nM | 1.59 | –
E28 [6], 4.1 nM | – | 1.14
E28 [6], 12.3 nM | – | 1.14
E28 [6], 37 nM | – | 1.14
E28 [6], 111.1 nM | – | 0.988
E28 [6], 333.3 nM | – | 1.06
E28 [6], 1000 nM | – | 1.12
E28 [6], 3000 nM | – | 0.739
E28 [13], 4.1 nM | 1.01 | –
E28 [13], 12.3 nM | 0.675 | –
E28 [13], 37 nM | 0.613 | –
E28 [13], 111.1 nM | 0.631 | –
E28 [13], 333.3 nM | 0.646 | –
E28 [13], 1000 nM | 0.601 | –
E28 [13], 3000 nM | 0.879 | –
E31 [7], 4.1 nM | – | 0.989
E31 [7], 12.3 nM | – | 1.02
E31 [7], 37 nM | – | 1.02
E31 [7], 111.1 nM | – | 0.921
E31 [7], 333.3 nM | – | 0.973
E31 [7], 1000 nM | – | 1.06
E31 [7], 3000 nM | – | 0.941
E31 [14], 4.1 nM | 0.665 | –
E31 [14], 12.3 nM | 0.919 | –
E31 [14], 37 nM | 0.653 | –
E31 [14], 111.1 nM | 0.43 | –
E31 [14], 333.3 nM | 0.486 | –
E31 [14], 1000 nM | 0.737 | –
E31 [14], 3000 nM | 0.899 | –
E34 [5], 4.1 nM | – | 1.08
E34 [5], 12.3 nM | – | 0.923
E34 [5], 37 nM | – | 0.995
E34 [5], 111.1 nM | – | 1.06
E34 [5], 333.3 nM | – | 1.04
E34 [5], 1000 nM | – | 1.03
E34 [5], 3000 nM | – | 0.818
E34 [12], 4.1 nM | 0.805 | –
E34 [12], 12.3 nM | 0.881 | –
E34 [12], 37 nM | 0.524 | –
E34 [12], 111.1 nM | 0.804 | –
E34 [12], 333.3 nM | 0.741 | –
E34 [12], 1000 nM | 0.759 | –
E34 [12], 3000 nM | 1.45 | –
E57 [1], 4.1 nM | – | 1.04
E57 [1], 12.3 nM | – | 1.07
E57 [1], 37 nM | – | 1.02
E57 [1], 111.1 nM | – | 0.975
E57 [1], 333.3 nM | – | 1.12
E57 [1], 1000 nM | – | 1.03
E57 [1], 3000 nM | – | 0.96
E57 [8], 4.1 nM | 0.899 | –
E57 [8], 12.3 nM | 1.11 | –
E57 [8], 37 nM | 0.644 | –
E57 [8], 111.1 nM | 0.447 | –
E57 [8], 333.3 nM | 1.15 | –
E57 [8], 1000 nM | 0.55 | –
E57 [8], 3000 nM | 1.16 | –
FT3469 [3], 4.1 nM | – | 1.08
FT3469 [3], 12.3 nM | – | 1.38
FT3469 [3], 37 nM | – | 1
FT3469 [3], 111.1 nM | – | 1.2
FT3469 [3], 333.3 nM | – | 0.863
FT3469 [3], 1000 nM | – | 1.25
FT3469 [3], 3000 nM | – | 0.973
FT3469 [10], 4.1 nM | 0.579 | –
FT3469 [10], 12.3 nM | 0.768 | –
FT3469 [10], 37 nM | 0.688 | –
FT3469 [10], 111.1 nM | 0.824 | –
FT3469 [10], 333.3 nM | 0.788 | –
FT3469 [10], 1000 nM | 2.5 | –
FT3469 [10], 3000 nM | 0.402 | –
